Source: patent US11039613B2, “Germination promoters” (SYNGENTA PARTICIPATIONS AG, priority 2017, dated 2021)

Test system: NK Falkone corn seeds
Test: Corn seed germination, cold stress (15° C.)
Type: in vivo
Conditions: for T50 (% vs control): control T50 = 110 hours
Experimental: The effect of compounds of Formula (II-1 and III-1) on the germination of NK Falkone corn seeds under salt and cold stress was evaluated as follows.
NK Falkone corn seeds (harvested in 2015) were sorted by size using a sieve to keep away round seeds.
The corn seeds were placed in 24 well plates (each plate was considered as one experimental unit or replicate). Germination was initiated by the addition of 200 μl of distilled water containing 0.5% DMSO per well. 8 replicates (i.e. 8 plates) were used for each treatment characterization. Plates were sealed using seal foil (Polyolefin Art. Nr. 900320) from HJ-BIOANALYTIK. All plates were placed in two carrousels in a climatic chamber at 15° C. The experiment was laid out in a completely randomized design in climatic chamber with 60% Relative Humidity.
Germination was followed over time by taking photographs at different time points. Image analysis was performed automatically with a macro which was developed using the Image J software. A dynamic analysis of germination was carried out by fitting a logistic curve. Three parameters were calculated from the logistic curve: the T50; the slope and the plateau. All three parameters have a high agronomical relevance and are key requirements to ensure a good early crop-establishment. The T50 and slope for a selection of compounds are outlined in Table 2 below. All the values are expressed as percentages compared to an untreated control. All the three parameters are calculated considering 8 replicates and the kinetic parameters are separately determined for each germination curve. Data in bold indicate germination enhancing statistically significant differences between treated seeds and untreated control (p<0.05). T50 corresponds to the time needed for half of the seed population to germinate. Higher negative %-values indicate faster germination. Slope indicates how synchronous the germination of the seed population is. Positive values indicate steeper curve. The steeper the curve, the better and more uniform the germination is.

SMILES	Slope (% vs control) (Rate 10 μM)	T50 (% vs control) (Rate 10 μM)	Slope (% vs control) (Rate 50 μM)	T50 (% vs control) (Rate 50 μM)	Slope (% vs control) (Rate 250 μM)	T50 (% vs control) (Rate 250 μM)	Slope compared with closest prior art compound P2 (at equivalent rates, vs P2)	T50 compared with closest prior art compound P2 (at equivalent rates, vs P2)	Slope (% vs control) (Rate 2 μM)	T50 (% vs control) (Rate 2 μM)
CC1=C[C@@H](O/C=C2/C(=O)O[C@@H]3Cc4ccccc4[C@H]23)N(c2cc(C(F)(F)F)cc(C(F)(F)F)c2)C1=O [II-1b]	19.20 % vs control	−2.50 % vs control	41.40 % vs control	−5.10 % vs control	62.40 % vs control	−5.90 % vs control	higher slope	lower T50		
CC1=CC(O/C=C2/C(=O)OC3c4ccccc4CC23)N(c2cc(C(F)(F)F)cc(C(F)(F)F)c2)C1=O (centres unmarked) [Compound P2, reference compound]	−13.4 % vs control	−2.0 % vs control	−19.7 % vs control	−0.9 % vs control					−19.5 % vs control	−0.8 % vs control
